Test system: patients in treatment for chronic neuropathic pain
Test: 42 patient physician-sponsored open label clinical study of the compounded transdermal formulation
Assay type: in vivo
Conditions: about 1/4 gm applied to site of pain twice a day; overall trial 18 months
Experimental: A number of examples of formulations of the invention were made. The formulations were used in the 42 patient open-label study of Example 2 and applied under “Cannacreme-C” 60 gm.
A 42 patient open label clinical study was performed as a physician sponsored study of patients in treatment for chronic pain with different diagnoses.
Patients ranged in age from 30 to 70 years old and were both male and female. […]
Outcome measures included a patient's own subjective report, clinician's notes, as well as questionnaires such as the McGill Pain Questionnnaire (Melzack R., Pain. 1:277-299, 1975), Fibromyalgia impact Questionnaire (Burckhardt, C. S. et al., J. Rheumatol. 18:728-733, 1991), Visual Analogue Pain Rating Scale (such as reviewed in Wewers M. E. and Lowe N. K. Res. Nursing Health 13:227-236, 1990), and Likert Pain Scales (Likert, R. Arch. Psychol. 140: 55, 1932). Objective electrophysiological monitoring including Quantitative Sensory Testing, Electromyogram, and Nerve Conduction Studies, as required from patient to patient. […]

## CCCCCCC(C)(C)c1cc(O)c2c(c1)OC(C)(C)C1CCC(=O)CC21 (stereo not shown) [Nabilone, 3-(1,1-dimethylheptyl)-6,6a,7,8,10,10a-hexahydro-1-hydroxy-6,6-dimethyl-9H-dibenzo[b,d]pyran-9-one]
  local site sensitization, irritation or Adverse Drug Reaction: no reports of local site sensitization or irritation

Source: patent US20100184848A1, “TRANSDERMAL FORMULATIONS OF SYNTHETIC CANNABINOIDS AND NANO COLLOIDAL SILICA” (priority 2006, published 2010)
